Series [1] has as its system intestinal crypts. Kind of series: Organoid formation (clonogenicity) of intestinal crypts isolated from treated mice. The format is in vivo. From the text:
(§1) Mice were housed in the Unit for Laboratory Animal Medicine at the Whitehead Institute for Biomedical Research. Lgr5-EGFP-IRES-CreERT2 mice (Strain name: B6.129P2-Lgr5tm1(cre/ERT2)Cle/J, Stock Number: 008875) were purchased from Jackson Laboratories. UbiquitinC-CreERT2 mice were obtained from the Jackson Laboratory (Strain Name: B6; 129S-Tg(UBC-cre/ERT2)1Ejb/J, Stock Number: 007001). Rictor floxed mice were generated as described in^27 and backcrossed to C57BL/6 for at least 6 generations. TSC1^loxp/loxp mice were the generous gift of D. Kwiatkowski (Harvard Medical School) and backcrossed to C57BL/6 for at least 6 generations. Rosa26-CreERT2 mice (Rosa26 or R26) were obtained from the Jackson Laboratory (Strain 15 Name: B6.129-Gt(ROSA)26Sor^iml(cre/ERT2)Tyj/J, Stock Number 008463). CR was achieved by providing individual or paired mice a daily portion of a chow diet fortified with vitamins and minerals amounting to 60% of the daily food intake of their ad libitum counterparts^20. All adult mice used in CR experiments were between the ages of 10 to 24 weeks and were sacrificed prior to their daily feeding. Rictor or TSC1 was excised by treatment with tamoxifen suspended in corn or sunflower seed oil (Spectrum) at a concentration of 10 mg/mL, and 200 μl per 25 g of body weight was injected intraperitoneally into mice once daily for 5-7 days. […] Mice were allowed to recover for at least 7 days after the last tamoxifen injection prior to any experiments. In vivo fate mapping in Lgr5-EGFP-IRES-reERT2; Rosa26loxpstoploxp-LacZ compound mice was done with a single injection of tamoxifen given at 200 μl per 25 g. As described previously^28, Rapamycin (LC Laboratories) was administered by intraperitoneal injection for 7 to 28 consecutive doses at 4 mg/kg. It was reconstituted in absolute ethanol at 10 mg/ml and diluted in 5% Tween-80 (Sigma) and 5% PEG-400 (Hampton Research) before injection. The final volume of all injections was 200 μl. Regular insulin (Lilly) was administered at 0.75 U/kg diluted in PBS 20 minutes prior to sacrificing fasted mice.
Small intestines were removed and the fat/mesentery was dissected away. The intestinal lumen was washed with ice cold PBS (Mg—/Ca—) using a 18 G feeding needle (Roboz FN-7905) until the intestines appeared white/pink. They were then opened longitudinally. The mucous was removed by gently rubbing the intestine between fingers in cold PBS. The intestines were cut into 3 to 5 mm fragments and placed into 50 ml conical tubes that were fill with ice cold 30 ml of PBS (Mg—/Ca—)/EDTA (10 mM). The samples were incubated and shook intermittently on ice for 30 minutes continuously discarding and replacing (at least 3 times) the supernatant. […]

For series [2], the system named is Lgr5hi ISCs combined with Paneth cells. Description: Organoid formation of Lgr5hi ISCs cocultured with Paneth cells from treated mice. It is filed as in vivo. The following applies: for organoid formation of ISCs combined with Paneth cells from rapamycin-treated mice vs vehicle/AL Paneth cells: n=3-5, FIG. 3l, FIG. 13c.
From the text: as §1
Small intestines were removed and the fat/mesentery was dissected away. The intestinal lumen was washed with ice cold PBS (Mg—/Ca—) using a 18 G feeding needle (Roboz FN-7905) until the intestines appeared white/pink. They were then opened longitudinally. The mucous was removed by gently rubbing the intestine between fingers in cold PBS. The intestines were cut into 3 to 5 mm fragments and placed into 50 ml conical tubes that were fill with ice cold 30 ml of PBS (Mg—/Ca—)/EDTA (10 mM). The samples were incubated and shook intermittently on ice for 30 minutes continuously discarding and replacing (at least 3 times) the supernatant. The fragments were then continually resuspended with ice cold 30 ml PBS (Mg—/Ca—)/EDTA (10 mM) and intermittently shook on ice for 10 minutes, discarding the supernatant again for 3 times. The fragments were resuspended again with ice cold 30 ml PBS (Mg—/Ca—)/EDTA (10 mM) and incubated and intermittently shook while waiting on ice for 20 to 40 minutes. The samples were then triturated with a 10 ml pipette 1 to 2 times, and the contents were filtered twice through a 70-μm mesh (BD Falcon) into a 50 ml conical tube to remove villous material and tissue fragments. […] Crypts were removed from this step for crypt culture experiments and embedded in matrigel with crypt culture media. For ISC isolation, the crypt suspensions were centrifuged for 5 minutes at 250 g (4 C or room temperature). The pellets were gently resuspended in 1.0 ml of undiluted TrypLE Express (Invitrogen)+120 μl of DNase I (10 U/μl, Roche) and transferred to 15 ml conical tubes. The samples were incubated in a 32° C. water bath for 1.25 to 2 minutes, were not titurated, and were then placed on ice. 12 ml of cold SMEM was added to each sample and were gently triturated twice. The samples were then centrifuged for 5 minutes at 250 g.

In series [3] the test system is cleaved caspase 3. Description: Enterocyte apoptosis, cleaved caspase 3 immunostain. The format is in vivo, mice. The following applies: n=3 per group, FIG. 7. The protocol:
Tissues were fixed in 10% formalin, paraffin embedded, and sectioned. Antigen retrieval was performed with Borg Decloaker RTU solution (Biocare Medical) in a pressurized Decloaking Chamber (Biocare Medical) for 3 minutes. Antibodies: rat anti-BrdU (1:2000; Abeam 6326), rabbit phospho-S6 Ser235/236 (1:500, CST 4858), rabbit cleaved caspase 3 (1:500; CST 9664), rabbit chromogranin A (1:3000, Abeam 15160), rabbit Lysozyme (1:2000; Thermo), rabbit Bst-1 (1:1000, Abeam 74301) and mouse Bst-1 (1:100 to 500, BD Pharmingen). For mouse Bst-1, the M.O.M (mouse on mouse) kit was used according to the manufacturer's instructions (Vector labs PK-2200). Biotin conjugated secondary donkey anti-rabbit or rat antibodies were used from Jackson ImmunoResearch. The Vectastain Elite ABC immunoperoxidase detection kit (Vector Labs PK-6101) followed by Dako Liquid DAB+ Substrate (Dako) was used for visualization. For immunofluorescence Alexa Fluor 568 secondary antibodies (Invitrogen) were used. All antibody incubations were performed with Common Antibody Diluent (Biogenex).

Series [4] concerns Paneth cells. Description: Paneth cell numbers in small intestine after 10 Gy ionizing radiation (histology). The format is in vivo, mice. The conditions noted are these: for number of Paneth cells vs irradiated control, pre- and post-treatment: 4 mg/kg IP daily 1 week, 10 Gy gamma rays, then intermittent rapamycin two weeks, FIG. 14c; for number of Paneth cells vs irradiated control, post-treatment only: 10 Gy followed by intermittent rapamycin over two weeks, FIG. 14b. The protocol: Paneth cells are essential to the survival of Lgr5+ intestinal stem cells. […] The clonogenicity of ISCs is enhanced by co-culturing of these cells with Paneth cells from mice treated with caloric restriction or rapamycin (FIG. 13a). […] Mice were also treated with 10 Gy of radiation followed by intermittent treatment with rapamycin over the two weeks. […] Accordingly, rapamycin and derivatives or analogs or other agents thereof which inhibit mTOR, and/or and caloric restriction can be employed as agents for increasing the number and function of intestinal stem cells and Paneth cells, and as radioprotective agents against the acute and late toxicities of deliberate and accidental exposure to ionizing radiation.

One compound from patent publication US9532997B2, “Compositions and methods for promoting intestinal stem cell function” (Whitehead Institute for Biomedical Research, priority 2012, dated 2017) can be followed below.

“Also recorded” adds a separate entry of the source.

As for `CO[C@H]1C[C@@H]2CC[C@@H](C)[C@@](O)(O2)C(=O)C(=O)N2CCCC[C@H]2C(=O)O[C@H]([C@H](C)C[C@@H]2CC[C@@H](O)[C@H](OC)C2)CC(=O)[C@H](C)/C=C(\C)[C@@H](O)[C@@H](OC)C(=O)[C@H](C)C[C@H](C)/C=C/C=C/C=C/1C` [Rapamycin, sirolimus], the “effect of combination of CR and rapamycin on crypt organoid formation” value in series [1] (CR+R treated mice, FIG. 3i) was “non-additive”. Besides, the “organoids per intestinal crypt, increase vs vehicle-treated mice” value in series [1] (crypts isolated from mice given 4 mg/kg daily, n=3-5, FIG. 3i) is roughly 2 fold. Besides, the “organoid body formation of crypts compared with CR” value in series [1] (mice treated for 1 week, FIG. 3i) is recorded as “as capable of forming organoid bodies as those from mice on CR”. Besides, in series [1] (rapamycin 1 to 3 weeks after Rictor-deletion in Rictorfl/fl UBC-CreERT2 mice vs WT, FIG. 3k), the “crypt clonogenicity after Rictor deletion (mTORC2 independence)” value is given as “increased the clonogenicity of crypts irrespective of whether they were isolated from adult intestines expressing or lacking Rictor; also recorded: increased crypt clonogenicity to a similar extent as those isolated from rapamycin treated wild-type (WT) mice”. In addition, the “organoids per AL Lgr5hi ISC mixed with Paneth cells from treated mice, increase vs vehicle” value in series [2] (4 mg/kg) is reported as roughly 2 fold. Also, in series [2] (CR+R treated mice, FIG. 3j), the “effect of combination of CR and rapamycin in ISC-Paneth cell coculture” value is given as “non-additive”. For the same compound, the “direct effect on ISC function (clonogenicity of ISCs from treated vs vehicle mice)” value in series [2] (FIG. 3l) is recorded as “no direct effect on ISC function”. Besides, the “secondary organoid bodies derived from rapamycin-treated Paneth cells vs vehicle” value in series [2] (FIG. 3m) was “larger and more complex”. Besides, the “stability of augmented capacity of Paneth cells to promote ISC self-renewal” value in series [2] (Paneth cells placed in nutrient rich media that activates mTORC1) is “maintain their augmented capacity to promote ISC self-renewal”. Besides, the “organoid formation of ISCs combined with Paneth cells from rapamycin-treated mice vs vehicle/AL Paneth cells” value in series [2] is given as “significantly increased”; in series [2] (listed as rapamycin), “prominent increase; also recorded: significantly increased”. Also, the “cleaved caspase 3 (enterocyte apoptosis) vs AL controls” value in series [3] is given as “no increase”. Besides, the entries for the “number of Paneth cells vs irradiated control, pre- and post-treatment” value in series [4] and in series [4] (listed as rapamycin) were “increase in the number of morphologically normal Paneth cells” and “significantly higher numbers of Paneth cells”, respectively. Besides, the “number of Paneth cells vs irradiated control, post-treatment only” value in series [4] is on record as “increase in the number of morphologically normal Paneth cells”; in series [4] (listed as rapamycin), “significantly higher numbers of Paneth cells”.
